The values below come from the NIST ThermoML archive (doi:10.1016/j.fluid.2014.11.020).

Each structure is given as a SMILES string. ± gives the expanded uncertainty stated by the source.

The data set in a line: activity coefficient (dimensionless); of the first substance listed, at infinite dilution; xn = mol fraction of the nth substance listed. Particulars: Liquid, Chromatography, x1 = 0.

`CCCO` [propan-1-ol] + CCCOC[n+]1ccn(Cc2ccccc2)c1.N#C[N-]C#N: the activity coefficient turned out to be 0.84 ± 0.05 (323.15 K), 0.7 ± 0.05 (333.15 K) and 0.69 ± 0.05 (343.15 K).
Taken in the same sequence, the figures for `CCCO` [propan-1-ol] + CN(C)c1cc[n+](COCCCOC[n+]2ccc(N(C)C)cc2)cc1.O=S(=O)([N-]S(=O)(=O)C(F)(F)F)C(F)(F)F.O=S(=O)([N-]S(=O)(=O)C(F)(F)F)C(F)(F)F were 1.51 ± 0.1, 1.37 ± 0.09 and 1.22 ± 0.08.
Taken in the same sequence, the figures for `CCCO` [propan-1-ol] + Cn1cc[n+](COCCCOC[n+]2ccn(C)c2)c1.N#C[N-]C#N.N#C[N-]C#N were 1.22 ± 0.08, 1.17 ± 0.07 and 1.1 ± 0.07.
Take `CCCO` [propan-1-ol] + Cn1cc[n+](COCCCOC[n+]2ccn(C)c2)c1.O=S(=O)([N-]S(=O)(=O)C(F)(F)F)C(F)(F)F.O=S(=O)([N-]S(=O)(=O)C(F)(F)F)C(F)(F)F: the activity coefficient reads like this: (323.15 K) 1.43 ± 0.09; (333.15 K) 1.32 ± 0.09; (343.15 K) 1.19 ± 0.08.
Taken in the same sequence, the figures for `CCCO` [propan-1-ol] + N#C[N-]C#N.N#C[N-]C#N.c1ccc(Cn2cc[n+](COCCCOC[n+]3ccn(Cc4ccccc4)c3)c2)cc1 were 1.24 ± 0.08, 1.2 ± 0.08 and 1.14 ± 0.07.
Taken in the same sequence, the figures for `CC(C)O` [propan-2-ol] + CCCCCCCCn1cc[n+](COCCC)c1C.O=S(=O)([N-]S(=O)(=O)C(F)(F)F)C(F)(F)F were 1.16 ± 0.07, 1.05 ± 0.07 and 0.99 ± 0.06.
As to `CC(C)O` [propan-2-ol] + CCCCCCCCn1cc[n+](COCCCOC[n+]2ccn(CCCCCCCC)c2C)c1C.N#C[N-]C#N.N#C[N-]C#N, the activity coefficient reads like this: (323.15 K) 0.4 ± 0.03; (333.15 K) 0.38 ± 0.03; (343.15 K) 0.38 ± 0.03.
With `CC(C)O` [propan-2-ol] + CCCCCCCCn1cc[n+](COCCCOC[n+]2ccn(CCCCCCCC)c2C)c1C.O=S(=O)([N-]S(=O)(=O)C(F)(F)F)C(F)(F)F.O=S(=O)([N-]S(=O)(=O)C(F)(F)F)C(F)(F)F, the activity coefficient is 0.68 ± 0.05 (323.15 K), 0.61 ± 0.04 (333.15 K) and 0.56 ± 0.04 (343.15 K).
For the compound `CC(C)O` [propan-2-ol] + CCCOC[n+]1ccc(N(C)C)cc1.O=S(=O)([N-]S(=O)(=O)C(F)(F)F)C(F)(F)F, the activity coefficient by setting is: (323.15 K) 1.7 ± 0.11; (333.15 K) 1.62 ± 0.11; (343.15 K) 1.45 ± 0.1.
Taken in the same sequence, the figures for `CC(C)O` [propan-2-ol] + CCCOC[n+]1ccn(C)c1.F[B-](F)(F)F were 2.91 ± 0.2, 2.7 ± 0.18 and 2.6 ± 0.18.
For `CC(C)O` [propan-2-ol] + CCCOC[n+]1ccn(C)c1.N#C[N-]C#N, the activity coefficient came to 1.1 ± 0.07 (323.15 K), 1.07 ± 0.07 (333.15 K) and 1.04 ± 0.07 (343.15 K).
For `CC(C)O` [propan-2-ol] + CCCOC[n+]1ccn(C)c1.O=S(=O)([N-]S(=O)(=O)C(F)(F)F)C(F)(F)F the same measures were 1.9 ± 0.13, 1.51 ± 0.1 and 1.39 ± 0.09.
For `CC(C)O` [propan-2-ol] + CCCOC[n+]1ccn(Cc2ccccc2)c1.F[B-](F)(F)F the same measures were 2.19 ± 0.15, 1.96 ± 0.13 and 1.81 ± 0.12.
For `CC(C)O` [propan-2-ol] + CCCOC[n+]1ccn(Cc2ccccc2)c1.N#C[N-]C#N the same measures were 0.85 ± 0.05, 0.84 ± 0.05 and 0.82 ± 0.05.
Turning to `CC(C)O` [propan-2-ol] + CN(C)c1cc[n+](COCCCOC[n+]2ccc(N(C)C)cc2)cc1.O=S(=O)([N-]S(=O)(=O)C(F)(F)F)C(F)(F)F.O=S(=O)([N-]S(=O)(=O)C(F)(F)F)C(F)(F)F, the activity coefficient by setting is: (323.15 K) 1.42 ± 0.09; (333.15 K) 1.3 ± 0.08; (343.15 K) 1.18 ± 0.08.
Taken in the same sequence, the figures for `CC(C)O` [propan-2-ol] + Cn1cc[n+](COCCCOC[n+]2ccn(C)c2)c1.N#C[N-]C#N.N#C[N-]C#N were 1.39 ± 0.09, 1.32 ± 0.09 and 1.26 ± 0.08.
Taken in the same sequence, the figures for `CC(C)O` [propan-2-ol] + Cn1cc[n+](COCCCOC[n+]2ccn(C)c2)c1.O=S(=O)([N-]S(=O)(=O)C(F)(F)F)C(F)(F)F.O=S(=O)([N-]S(=O)(=O)C(F)(F)F)C(F)(F)F were 1.31 ± 0.09, 1.22 ± 0.08 and 1.05 ± 0.07.
Taken in the same sequence, the figures for `CC(C)O` [propan-2-ol] + N#C[N-]C#N.N#C[N-]C#N.c1ccc(Cn2cc[n+](COCCCOC[n+]3ccn(Cc4ccccc4)c3)c2)cc1 were 1.57 ± 0.1, 1.45 ± 0.1 and 1.39 ± 0.09.
As to `c1ccncc1` [pyridine] + CCCCCCCCn1cc[n+](COCCC)c1C.N#C[N-]C#N, the activity coefficient reads like this: (323.15 K) 0.66 ± 0.05; (333.15 K) 0.59 ± 0.04; (343.15 K) 0.54 ± 0.04.
Taken in the same sequence, the figures for `c1ccncc1` [pyridine] + CCCCCCCCn1cc[n+](COCCC)c1C.O=S(=O)([N-]S(=O)(=O)C(F)(F)F)C(F)(F)F were 0.35 ± 0.03, 0.34 ± 0.03 and 0.3 ± 0.03.
For `c1ccncc1` [pyridine] + CCCCCCCCn1cc[n+](COCCCOC[n+]2ccn(CCCCCCCC)c2C)c1C.N#C[N-]C#N.N#C[N-]C#N the same measures were 0.4 ± 0.03, 0.38 ± 0.03 and 0.38 ± 0.03.
Consider `c1ccncc1` [pyridine] + CCCCCCCCn1cc[n+](COCCCOC[n+]2ccn(CCCCCCCC)c2C)c1C.O=S(=O)([N-]S(=O)(=O)C(F)(F)F)C(F)(F)F.O=S(=O)([N-]S(=O)(=O)C(F)(F)F)C(F)(F)F, for which the activity coefficient by setting is: (323.15 K) 0.13 ± 0.03; (333.15 K) 0.14 ± 0.03; (343.15 K) 0.15 ± 0.03.
Taken in the same sequence, the figures for `c1ccncc1` [pyridine] + CCCOC[n+]1ccc(N(C)C)cc1.O=S(=O)([N-]S(=O)(=O)C(F)(F)F)C(F)(F)F were 0.43 ± 0.04, 0.45 ± 0.04 and 0.46 ± 0.04.
For `c1ccncc1` [pyridine] + CCCOC[n+]1ccn(C)c1.N#C[N-]C#N the same measures were 0.91 ± 0.06, 0.93 ± 0.06 and 0.97 ± 0.06.
Taken in the same sequence, the figures for `c1ccncc1` [pyridine] + CCCOC[n+]1ccn(Cc2ccccc2)c1.F[B-](F)(F)F were 0.6 ± 0.04, 0.61 ± 0.04 and 0.65 ± 0.04.
For `c1ccncc1` [pyridine] + CCCOC[n+]1ccn(Cc2ccccc2)c1.N#C[N-]C#N, the activity coefficient amounted to 0.67 ± 0.05 (323.15 K), 0.69 ± 0.05 (333.15 K) and 0.71 ± 0.05 (343.15 K).
In the case of `c1ccncc1` [pyridine] + CCCOC[n+]1ccn(Cc2ccccc2)c1.O=S(=O)([N-]S(=O)(=O)C(F)(F)F)C(F)(F)F, the activity coefficient (333.15 K) is 0.28 ± 0.03 and the activity coefficient (343.15 K) was determined as 0.29 ± 0.03.
